# Measured values from patent publication US20240101576A1, “HETEROCYCLIC INHIBITORS OF EGFR AND/OR HER2, FOR USE IN THE TREATMENT OF CANCER” (Scorpion Therapeutics, Inc., priority 2020, published 2024).
# Columns and labels:
# Format in all cases: cell-based
# [1] = biological target: T1, EGFR exon 20 FQEA Ins A763_V764 (Ba/F3 cells) (Homo sapiens, UniProt P00533, INS763FQEA); test: Inhibitor activity on EGFR-dependent cell growth (CellTiter-Glo, 72 h), Ba/F3 EGFR exon 20 FQEA Ins; settings: read-out: BaF3 FQEA IC50
# T1 construct: expressed in transfected cells; host or cells: Ba/F3 (murine pro-B cells), retroviral transduction, puromycin selection, IL3-independent pool
# How it was run: (§1)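 Mutant EGFR drives IL3-independent growth of engineered Ba/F3 pools. L858R cells go in at 400/well, L858R/C797S at 600, and exon 19del or FQEA insertion at 800. After 72 h with compound, plates are equilibrated 15 min at RT. Reagent is added 1:1, followed by 30 min and a luminescence read.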
# [2] = biological target: T2, EGFR exon 20 NPG Ins D770_N771 (Ba/F3 cells) (Homo sapiens, UniProt P00533, INS770NPG); test: Inhibitor activity on EGFR phosphorylation (pEGFR AlphaLISA, 2 h), Ba/F3 EGFR exon 20 NPG Ins
# T2 construct: expressed in transfected cells; host or cells: Ba/F3 (murine pro-B cells), retroviral transduction, puromycin selection, IL3-independent pool
# How it was run: (§2)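 Steps: seed cells (Ba/F3 50K, CUTO14 12.5K per well); add 3-fold, 10-point compound dilution; incubate 2 h; lyse 1 hr; add acceptor then donor beads (1.5 hrs, RT, dark); read AlphaLISA signal for IC50.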
# [3] = biological target: T3, EGFR exon 20 ASV Ins V769_D770 (Ba/F3 cells) (Homo sapiens, UniProt P00533, INS769ASV); test: Inhibitor activity on EGFR phosphorylation (pEGFR AlphaLISA, 2 h), Ba/F3 EGFR exon 20 ASV Ins; settings: EGFR phosphorylation, AlphaLISA, 2 hours; read-out: ASV IC50 (pEGFR)
# T3 construct: expressed in transfected cells; host or cells: Ba/F3 (murine pro-B cells), retroviral transduction, puromycin selection, IL3-independent pool
# T3 sequence (P00533 with tags, fused parts or gaps INS769ASV): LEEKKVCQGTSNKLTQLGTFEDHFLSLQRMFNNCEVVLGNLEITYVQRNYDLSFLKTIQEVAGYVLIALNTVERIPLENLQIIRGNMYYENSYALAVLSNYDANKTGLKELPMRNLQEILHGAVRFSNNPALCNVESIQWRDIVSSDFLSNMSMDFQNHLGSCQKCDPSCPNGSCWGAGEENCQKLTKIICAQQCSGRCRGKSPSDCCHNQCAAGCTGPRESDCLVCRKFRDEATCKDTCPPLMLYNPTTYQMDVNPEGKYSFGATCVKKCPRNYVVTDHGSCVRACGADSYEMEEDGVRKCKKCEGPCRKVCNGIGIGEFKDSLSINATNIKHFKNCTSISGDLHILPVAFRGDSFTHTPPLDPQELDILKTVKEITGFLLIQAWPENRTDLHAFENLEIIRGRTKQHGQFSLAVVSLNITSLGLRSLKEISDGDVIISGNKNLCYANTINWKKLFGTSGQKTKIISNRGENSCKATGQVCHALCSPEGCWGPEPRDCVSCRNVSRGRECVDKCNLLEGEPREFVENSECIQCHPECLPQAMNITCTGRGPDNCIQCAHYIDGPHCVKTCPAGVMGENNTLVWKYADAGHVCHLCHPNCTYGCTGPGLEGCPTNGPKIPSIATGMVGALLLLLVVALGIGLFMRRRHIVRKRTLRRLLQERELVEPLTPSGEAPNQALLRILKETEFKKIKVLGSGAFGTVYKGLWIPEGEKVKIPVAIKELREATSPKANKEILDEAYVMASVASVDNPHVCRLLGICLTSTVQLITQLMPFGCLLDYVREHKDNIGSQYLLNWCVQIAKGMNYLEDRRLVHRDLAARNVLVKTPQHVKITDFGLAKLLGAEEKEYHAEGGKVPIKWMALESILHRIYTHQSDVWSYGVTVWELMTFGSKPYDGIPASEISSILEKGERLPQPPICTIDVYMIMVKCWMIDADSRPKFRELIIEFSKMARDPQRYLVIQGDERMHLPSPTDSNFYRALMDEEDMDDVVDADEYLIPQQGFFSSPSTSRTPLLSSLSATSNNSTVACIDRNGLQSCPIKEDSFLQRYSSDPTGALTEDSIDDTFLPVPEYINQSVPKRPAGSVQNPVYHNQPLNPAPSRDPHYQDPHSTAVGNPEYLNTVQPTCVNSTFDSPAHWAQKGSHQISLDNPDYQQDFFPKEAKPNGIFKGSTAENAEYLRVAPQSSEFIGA
# How it was run: as §2
# [4] = biological target: T4, EGFR WT (Ba/F3 cells) (Homo sapiens, UniProt P00533); test: Inhibitor activity on EGFR-dependent cell growth (CellTiter-Glo, 72 h), Ba/F3 EGFR WT; settings: read-out: BaF3 WT IC50
# T4 construct: expressed in transfected cells; host or cells: Ba/F3 (murine pro-B cells), retroviral transduction, puromycin selection, maintained with EGF
# T4 sequence (P00533 25-1210): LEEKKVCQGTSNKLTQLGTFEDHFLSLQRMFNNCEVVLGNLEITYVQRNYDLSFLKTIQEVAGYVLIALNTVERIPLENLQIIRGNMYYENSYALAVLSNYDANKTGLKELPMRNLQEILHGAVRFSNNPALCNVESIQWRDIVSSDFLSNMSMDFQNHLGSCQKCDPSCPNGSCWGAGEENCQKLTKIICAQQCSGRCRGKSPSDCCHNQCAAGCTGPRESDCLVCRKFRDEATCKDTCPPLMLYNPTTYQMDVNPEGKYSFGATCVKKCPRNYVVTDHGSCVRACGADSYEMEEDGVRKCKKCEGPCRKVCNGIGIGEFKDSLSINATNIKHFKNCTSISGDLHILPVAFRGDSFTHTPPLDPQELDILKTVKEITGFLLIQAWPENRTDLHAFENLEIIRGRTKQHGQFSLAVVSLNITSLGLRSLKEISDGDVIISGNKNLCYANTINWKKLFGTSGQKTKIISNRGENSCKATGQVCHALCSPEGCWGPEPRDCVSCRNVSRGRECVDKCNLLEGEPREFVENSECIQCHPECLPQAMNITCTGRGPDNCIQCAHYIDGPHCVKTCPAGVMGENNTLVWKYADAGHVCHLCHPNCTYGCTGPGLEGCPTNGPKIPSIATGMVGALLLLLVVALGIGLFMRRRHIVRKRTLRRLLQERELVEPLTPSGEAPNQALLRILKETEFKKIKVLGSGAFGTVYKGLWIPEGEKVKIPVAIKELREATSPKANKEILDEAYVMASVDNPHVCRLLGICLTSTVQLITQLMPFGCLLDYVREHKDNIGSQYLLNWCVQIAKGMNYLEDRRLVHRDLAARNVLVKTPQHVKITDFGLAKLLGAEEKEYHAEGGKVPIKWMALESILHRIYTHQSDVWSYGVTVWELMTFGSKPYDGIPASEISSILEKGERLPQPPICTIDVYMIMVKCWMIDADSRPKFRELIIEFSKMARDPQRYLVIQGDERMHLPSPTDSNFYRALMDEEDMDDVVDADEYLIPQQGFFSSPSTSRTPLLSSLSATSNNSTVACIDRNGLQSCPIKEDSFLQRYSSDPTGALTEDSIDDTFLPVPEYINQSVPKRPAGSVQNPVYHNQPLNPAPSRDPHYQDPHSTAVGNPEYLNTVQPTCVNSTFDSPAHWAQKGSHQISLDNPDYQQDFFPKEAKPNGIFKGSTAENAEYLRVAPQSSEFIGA
# How it was run: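 This growth assay used Ba/F3 cells that depend on wild-type EGFR and are kept in EGF without IL3. Compounds were made up as 10 mM DMSO stocks and diluted 3-fold over 10 points. 120 nL went onto 600 cells/well. After 72 hours, 40 μL CellTiter-Glo was added and luminescence read on EnVision after 30 min.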
# [5] = biological target: T5, EGFR exon 19del (Ba/F3 cells) (Homo sapiens, UniProt P00533); test: Inhibitor activity on EGFR phosphorylation (pEGFR AlphaLISA, 2 h), Ba/F3 EGFR exon 19del; settings: read-out: Del19 IC50 (pEGFR)
# T5 sequence (P00533 with tags, fused parts or gaps DEL746-750): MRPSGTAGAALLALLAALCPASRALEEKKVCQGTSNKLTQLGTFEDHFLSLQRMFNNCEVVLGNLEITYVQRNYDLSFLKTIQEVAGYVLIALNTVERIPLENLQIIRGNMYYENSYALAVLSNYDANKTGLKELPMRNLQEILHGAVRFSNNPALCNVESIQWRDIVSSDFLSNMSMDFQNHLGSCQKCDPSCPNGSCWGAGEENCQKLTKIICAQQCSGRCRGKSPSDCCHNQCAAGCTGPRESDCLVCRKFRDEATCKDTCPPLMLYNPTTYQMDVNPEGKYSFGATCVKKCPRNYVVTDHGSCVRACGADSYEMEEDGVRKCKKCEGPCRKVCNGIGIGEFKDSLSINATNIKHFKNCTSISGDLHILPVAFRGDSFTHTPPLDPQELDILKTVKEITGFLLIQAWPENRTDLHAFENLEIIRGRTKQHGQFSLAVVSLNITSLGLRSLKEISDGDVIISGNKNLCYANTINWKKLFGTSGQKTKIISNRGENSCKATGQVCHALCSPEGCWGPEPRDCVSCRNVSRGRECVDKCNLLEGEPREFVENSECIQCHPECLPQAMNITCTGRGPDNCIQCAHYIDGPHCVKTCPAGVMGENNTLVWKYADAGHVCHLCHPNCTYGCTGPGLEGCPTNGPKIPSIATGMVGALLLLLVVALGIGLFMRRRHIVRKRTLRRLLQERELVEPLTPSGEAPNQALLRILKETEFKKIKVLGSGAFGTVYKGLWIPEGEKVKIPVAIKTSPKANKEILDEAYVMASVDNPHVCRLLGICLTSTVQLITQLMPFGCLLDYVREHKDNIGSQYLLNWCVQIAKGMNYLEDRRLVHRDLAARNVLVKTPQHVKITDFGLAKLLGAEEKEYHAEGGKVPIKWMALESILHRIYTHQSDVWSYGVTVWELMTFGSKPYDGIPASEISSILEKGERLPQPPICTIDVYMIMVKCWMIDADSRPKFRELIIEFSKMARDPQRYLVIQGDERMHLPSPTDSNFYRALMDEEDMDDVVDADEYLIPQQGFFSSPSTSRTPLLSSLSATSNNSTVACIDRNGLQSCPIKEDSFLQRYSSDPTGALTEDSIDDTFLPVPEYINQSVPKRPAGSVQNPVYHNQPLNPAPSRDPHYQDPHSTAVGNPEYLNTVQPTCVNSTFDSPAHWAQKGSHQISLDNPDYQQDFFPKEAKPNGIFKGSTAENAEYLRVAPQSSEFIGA
# How it was run: as §2
# [6] = biological target: T6, EGFR L858R (Ba/F3 cells) (Homo sapiens, UniProt P00533, L858R); test: Inhibitor activity on EGFR phosphorylation (pEGFR AlphaLISA, 2 h), Ba/F3 EGFR L858R
# T6 construct: expressed in transfected cells; host or cells: Ba/F3 (murine pro-B cells), retroviral transduction, puromycin selection, IL3-independent pool
# How it was run: as §2
# [7] = biological target: T2, EGFR exon 20 NPG Ins D770_N771 (Ba/F3 cells); test: Inhibitor activity on EGFR-dependent cell growth (CellTiter-Glo, 72 h), Ba/F3 EGFR exon 20 NPG Ins; settings: read-out: BaF3 NPG IC50
# How it was run: (§3)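 IC50s derive from a sigmoidal dose–response fit of CellTiter-Glo signal. The signal was normalised between […]-treated cells and cell-free medium. Ba/F3 mutant-EGFR cells, seeded at 400–800/well depending on the line, had 72 h of exposure to a 10-point, 3-fold compound series.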
# [8] = biological target: T7, EGFR L858R/C797S (Ba/F3 cells) (Homo sapiens, UniProt P00533, C797S/L858R); test: Inhibitor activity on EGFR phosphorylation (pEGFR AlphaLISA, 2 h), Ba/F3 EGFR L858R/C797S
# T7 construct: expressed in transfected cells; host or cells: Ba/F3 (murine pro-B cells), retroviral transduction, puromycin selection, IL3-independent pool
# How it was run: as §2
# [9] = biological target: EGFR (CUTO14 cells) (Homo sapiens, UniProt P00533); test: Inhibitor activity on EGFR phosphorylation (pEGFR AlphaLISA, 2 h), CUTO14 cells
# EGFR (CUTO14 cells), sequence (P00533 with tags, fused parts or gaps DUP767-769): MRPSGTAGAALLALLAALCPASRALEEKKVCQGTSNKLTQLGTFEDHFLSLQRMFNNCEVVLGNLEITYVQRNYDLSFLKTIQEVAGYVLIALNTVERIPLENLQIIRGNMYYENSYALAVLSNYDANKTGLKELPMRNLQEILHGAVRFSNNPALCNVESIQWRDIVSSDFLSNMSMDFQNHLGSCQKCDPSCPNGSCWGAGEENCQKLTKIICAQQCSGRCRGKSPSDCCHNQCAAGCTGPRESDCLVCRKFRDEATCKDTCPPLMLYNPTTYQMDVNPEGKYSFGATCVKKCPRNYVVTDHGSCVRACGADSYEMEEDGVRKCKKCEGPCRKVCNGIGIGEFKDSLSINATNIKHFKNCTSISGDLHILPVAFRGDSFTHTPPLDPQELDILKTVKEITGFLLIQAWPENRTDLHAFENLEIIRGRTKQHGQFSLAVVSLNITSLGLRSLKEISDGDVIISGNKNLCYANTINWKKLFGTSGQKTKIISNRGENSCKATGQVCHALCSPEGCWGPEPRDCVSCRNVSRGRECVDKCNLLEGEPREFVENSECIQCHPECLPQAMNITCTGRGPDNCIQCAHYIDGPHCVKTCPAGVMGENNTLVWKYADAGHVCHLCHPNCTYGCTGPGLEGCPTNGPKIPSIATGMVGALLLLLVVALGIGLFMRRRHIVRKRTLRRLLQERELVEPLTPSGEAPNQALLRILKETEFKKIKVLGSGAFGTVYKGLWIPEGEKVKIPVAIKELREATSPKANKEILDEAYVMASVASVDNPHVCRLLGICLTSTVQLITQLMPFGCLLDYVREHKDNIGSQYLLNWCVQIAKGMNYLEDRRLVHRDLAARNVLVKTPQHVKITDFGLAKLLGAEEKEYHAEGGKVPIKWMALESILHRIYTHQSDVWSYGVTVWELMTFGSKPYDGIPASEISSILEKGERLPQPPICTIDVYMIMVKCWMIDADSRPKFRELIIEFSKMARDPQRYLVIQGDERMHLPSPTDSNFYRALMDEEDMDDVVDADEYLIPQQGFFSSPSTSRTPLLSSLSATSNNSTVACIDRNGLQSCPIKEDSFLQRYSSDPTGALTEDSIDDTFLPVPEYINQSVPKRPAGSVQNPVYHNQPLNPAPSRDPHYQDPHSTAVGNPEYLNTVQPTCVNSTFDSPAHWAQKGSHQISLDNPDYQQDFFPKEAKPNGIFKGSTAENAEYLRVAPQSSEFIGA
# How it was run: as §2
# [10] = biological target: T8, EGFR exon 20 SVD Ins D770_N771 (Ba/F3 cells) (Homo sapiens, UniProt P00533, INS770SVD); test: Inhibitor activity on EGFR phosphorylation (pEGFR AlphaLISA, 2 h), Ba/F3 EGFR exon 20 SVD Ins
# T8 construct: expressed in transfected cells; host or cells: Ba/F3 (murine pro-B cells), retroviral transduction, puromycin selection, IL3-independent pool
# Excerpt: Example B. Inhibitor Activity on EGFR phosphorylation (pEGFR)
# EGFR mutant Ba/F3 cells were generated by transduction with retrovirus containing vectors expressing EGFR L858R, EGFR exon 19del, EGFR L858R/C797S, EGFR exon 20 NPG Ins D770_N771, EGFR exon 20 ASV Ins V769_D770, or EGFR exon 20 SVD Ins D770_N771 genes along with a puromycin selection marker. Transduced cells are selected with puromycin for 7 days and are then be transferred into culture media without Interleukin 3 (IL3). Surviving cells are confirmed to express EGFR by Western blot and maintained as a pool. CUTO14 cells were obtained from Dr. Robert C. Doebele at the University of Colorado. The IC50 date are included in Table 6 and Table 7.
# 1.1 Cells are harvested from flask into cell culture medium and the cell number counted.
# 1.2 Cells are diluted with culture medium to the desired density and 40 μL of cell suspension is added into each well of 384-well cell culture plate and the seeding density is 50K cells/well (Ba/F3) or 12.5K cells/well (CUTO14).
# 2 Compound Preparation and Treatment
# 2.1 Test compounds are dissolved to 10 mM in a DMSO stock solution. 45 μL of stock solution is transferred to a 384 polypropylene plate (pp-plate). Perform 3-fold, 10-point dilution via transferring 15 μL compound into 30 μL DMSO using a TECAN (EVO200) liquid handler.
# 2.2 Spin plates at room temperature at 1,000 RPM for 1 minute.
# 2.3 Transfer 5 nL of diluted compound from compound source plate into the cell plate.
# 2.4 After compound treatment for 2 hours, perform pEGFR detection by AlphaLISA for compound treatment plates as described in “Detection” section.
# 3 Detection by pEGFR AlphaLISA (Perkin-Elmer)
# 3.1 Plates are removed from incubators and equilibrated at room temperature for 10 minutes, and media was removed
# 3.2 10 μL of lysis buffer is added and plates shaken at 600 rpm for 1 hr.
# 3.3 Prepare acceptor mix just before use and dispense 5 μL of acceptor mix to all the wells. Shake 350 rpm for Ihr in the dark
# 3.4 Prepare donor mix under low light conditions prior to use. Dispense 5 μL of donor mix to all the wells. Mix well on the shaker, seal and wrap in aluminum foil and incubate 1.5 hrs at room temperature in the dark
# 3.5 Transfer 18.5 μL mixture to OptiPlate 384, and read using an Envision. The IC50 date were included in Table 6 and Table 7.
# [11] = biological target: T6, EGFR L858R (Ba/F3 cells); test: Inhibitor activity on EGFR-dependent cell growth (CellTiter-Glo, 72 h), Ba/F3 EGFR L858R; settings: read-out: BaF3 L858R IC50
# How it was run: as §1
# [12] = biological target: T8, EGFR exon 20 SVD Ins D770_N771 (Ba/F3 cells); test: Inhibitor activity on EGFR-dependent cell growth (CellTiter-Glo, 72 h), Ba/F3 EGFR exon 20 SVD Ins; settings: read-out: BaF3 SVD IC50
# How it was run: as §3
# [13] = biological target: T5, EGFR exon 19del (Ba/F3 cells); test: Inhibitor activity on EGFR-dependent cell growth (CellTiter-Glo, 72 h), Ba/F3 EGFR exon 19del; settings: Ba/F3 EGFR exon 19del cell growth, read-out: BaF3 Del19 IC50
# How it was run: as §1
# [14] = biological target: T3, EGFR exon 20 ASV Ins V769_D770 (Ba/F3 cells); test: Inhibitor activity on EGFR-dependent cell growth (CellTiter-Glo, 72 h), Ba/F3 EGFR exon 20 ASV Ins; settings: read-out: BaF3 ASV IC50
# How it was run: as §3
# [15] = biological target: T7, EGFR L858R/C797S (Ba/F3 cells); test: Inhibitor activity on EGFR-dependent cell growth (CellTiter-Glo, 72 h), Ba/F3 EGFR L858R/C797S; settings: read-out: BaF3 L858R/C797S IC50
# How it was run: as §1
SMILES,IC50 [1] [nM],IC50 [2] [nM],IC50 [3] [nM],IC50 [4] [nM],IC50 [5] [nM],IC50 [6] [nM],IC50 [7] [nM],IC50 [8] [nM],IC50 [9] [nM],IC50 [10] [nM],IC50 [11] [nM],IC50 [12] [nM],IC50 [13] [nM],IC50 [14] [nM],IC50 [15] [nM]
COc1c(Cl)cccc1Nc1c(-c2ccncc2F)[nH]c2c1C(=O)NC[C@@]21CCN(CC(F)(F)F)C1 [compound 817],< 100,< 100,< 100,100 to 1000,< 100,< 100,< 100,< 100,< 100,< 100,< 100,< 100,< 100,< 100,< 100
COCC[C@@H]1CNC(=O)c2c1[nH]c(-c1ccncn1)c2Nc1cccc(Cl)c1OC [445a],< 100,< 100,< 100,100 to 1000,< 100,< 100,< 100,< 100,< 100,< 100,< 100,< 100,< 100,< 100,< 100
COCC[C@H]1CNC(=O)c2c1[nH]c(-c1ccnc(C)n1)c2Nc1cccc(Cl)c1OC [463b],< 100,< 100,< 100,100 to 1000,< 100,< 100,< 100,< 100,< 100,< 100,< 100,< 100,< 100,< 100,< 100
